Test results from patent US20110257014A1, “1-(Heteroaryl)pyrazol-4-ylacetic acids, processes for their preparation and their use as herbicides and plant growth regulators” (BAYER CROPSCIENCE AG, priority 2009, published 2011).

How the values were obtained:
Experiment in all cases: Post-emergence herbicidal effect, greenhouse pot test
Format in all cases: in vivo
Settings in all cases: 0.32 kg of active substance per hectare, rated visually after about 3 weeks
Avena fatua = tested on: Avena fatua
Procedure: (§1) Seeds of monocotyledonous and dicotyledonous weed and crop plants are placed in sandy loam in wood-fiber pots, covered with soil and cultivated in a greenhouse under good growth conditions. 2 to 3 weeks after sowing, the test plants are treated at the one-leaf stage. The compounds (I) according to the invention, formulated in the form of wettable powders (WP), are then applied by spraying as aqueous suspension or emulsion at a water application rate of 600 I/ha (converted) with the addition of 0.2% of wetting agent to the green parts of the plants. After the test plants have been kept in the greenhouse under optimum growth conditions for about 3 weeks, the activity of the preparations is rated visually in comparison to untreated controls (herbicidal activity in percent (%): 100% activity=the plants have died, 0% activity=like control plants).

Echinochloa crus galli = tested on: Echinochloa crus galli
Procedure: as §1

Alopecurus myosuroides = tested on: Alopecurus myosuroides
Procedure: as §1

Abutilon theophrasti = tested on: Abutilon theophrasti
Procedure: as §1

Measured: herbicidal activity

COC(=O)Cc1c(C)nn(-c2cncn2C)c1-c1ccc(Cl)cc1 [Compound 5-1107, methyl [5-(4-chlorophenyl)-3-methyl-1-(1-methyl-1H-imidazol-5-yl)-1H-pyrazol-4-yl]acetate]
≥ 80%: all assays above
